Experimental data taken from patent US7649012B2, “Compounds, pharmaceutical compositions containing same, and methods of use for same” (FASgen, Inc., priority 2002, dated 2010).
≈ marks a conversion by molar mass, not a printed value. Like-named read-outs stand apart in the source and are kept apart here.

Legend:
Type in all cases: cell-based
OV = assay: XTT cytotoxicity assay, cells marked (OV)
[1] = tested on: MCF-7 human breast cancer cells; assay: [14C]acetate incorporation into total lipids; conditions: for IC50: Homo sapiens, MCF7, [14C]acetate incorporation into lipids; for 14C(IC50): [14C]acetate incorporation into lipids
Experimental: This assay measures the incorporation of [^14C]acetate into total lipids and is a measure of fatty acid synthesis pathway activity in vitro. It is utilized to measure inhibition of fatty acid synthesis in vitro.
MCF-7 human breast cancer cells cultured as above, are plated at 5×10^4 cells per well in 24-well plates. […] DMSO is added to triplicate wells for a vehicle control. C75 is run at 5 and 10 μg/ml in triplicate as positive controls. After 4 hours of incubation, 0.25 μCi of [^14C]acetate (10 μl volume) is added to each well.
After 2 hours of additional incubation, medium is aspirated from the wells and 800 μl of chloroform:methanol (2:1) and 700 μl of 4 mM MgCl2 is added to each well. Contents of each well are transferred to 1.5 Eppendorf tubes, and spun at full-speed for 2 minutes in a high-speed Eppendorf Microcentrifuge 5415D. After removal of the aqueous (upper) layer, an additional 700 μl of chloroform:methanol (2:1) and 500 μl of 4 mM MgCl2 are added to each tube and then centrifuged for 1 minutes as above. The aqueous layer is removed with a Pasteur pipette and discarded. An additional 400 μl of chloroform:methanol (2:1) and 200 μl of 4 mM MgCl2 are added to each tube, then centrifuged and aqueous layer is discarded. The lower (organic) phase is transferred into a scintillation vial and dried at 40° C. under N2 gas. Once dried, 3 ml of scintillant (APB #NBC5104) is added and vials are counted for ^14C. The Beckman Scintillation counter calculates the average cpm values for triplicates.
The IC50 for the compounds is defined as the concentration of drug leading to a 50% reduction in [^14C]acetate incorporation into lipids compared to controls. […] The average cpm values are computed by the Beckman scintillation counter (Model LS6500) for each compound concentration. Computation of linear regression, best-fit line, r^2, and 95% confidence intervals are calculated using Prism Version 3.0 (Graph Pad Software).

[2] = tested on: Escherichia coli (ATCC # 25922); assay: Broth microdilution MIC; conditions: for MIC: Escherichia coli, ATCC25922
Experimental: (§1) A broth microdilution assay is used to assess the antimicrobial activity of the compounds. […] Microorganisms tested include Staphylococcus aureus (ATCC # 29213), Enterococcus faecalis (ATCC # 29212), Pseudomonas aeruginosa (ATCC # 27853), and Escherichia coli (ATCC # 25922). The assay is performed in two growth media, Mueller Hinton Broth and Trypticase Soy Broth. […] Colonies are suspended in sterile broth so that the turbidity matches the turbidity of a 0.5 McFarland standard. The inoculum is diluted 1:10 in sterile broth (Mueller Hinton or Trypticase soy) and 195 ul is dispensed per well of a 96-well plate. The compounds to be tested, dissolved in DMSO, are added to the wells in 5 ul volume at the following concentrations: 25, 12.5, 6.25, 3.125, 1.56 and 0.78 ug/ml in duplicate. Additional concentrations are tested if required. 5 ul of DMSO added to duplicate wells are the vehicle control. Serial dilutions of positive control compounds, vancomycin (E. faecalis and S. aureus) and tobramycin (E. coli and P. aeruginosa), are included in each run. After 24 hours of incubation at 37° C., plates are read at OD600 on a Molecular Devices SpectraMax Plus Spectrophotometer. Average OD600 values are computed using SOFTmax Pro Software (Molecular Devices) and MIC values are determined by linear regression analysis using Prism version 3.02 (Graph Pad Software, San Diego).

[3] = tested on: Staphylococcus aureus (ATCC # 29213); assay: Broth microdilution MIC; conditions: Staphylococcus aureus, ATCC29213
Experimental: as §1

[4] = tested on: Enterococcus faecalis (ATCC # 29212); assay: Broth microdilution MIC; conditions: for MIC: Enterococcus faecalis, ATCC29212
Experimental: as §1

[5] = tested on: Pseudomonas aeruginosa (ATCC # 27853); assay: Broth microdilution MIC; conditions: for PSAE/MH(MIC): Mueller Hinton Broth; for PSAE/Tsoy(MIC): Trypticase Soy Broth
Experimental: as §1

[6] = Mueller Hinton Broth, read-out: SA/MH(MIC)
[7] = Trypticase Soy Broth, read-out: SA/Tsoy(MIC)
[8] = Trypticase Soy Broth, read-out: EF/Tsoy(MIC)
[9] = Mueller Hinton Broth, read-out: EF/MH(MIC)
[10] = Mueller Hinton Broth, read-out: Ecoli/MH(MIC)
[11] = Trypticase Soy Broth, read-out: Ecoli/Tsoy(MIC)

Row | IC50 [1] [mg/L] | Ecoli/MH(MIC) ([2]; Mueller Hinton Broth) | Ecoli/Tsoy(MIC) ([2]; Trypticase Soy Broth) | MIC [3, 6] [mg/L] | MIC [3, 7] [mg/L] | MIC [4, 8] [mg/L] | PSAE/MH(MIC) [5] | PSAE/Tsoy(MIC) [5] | MIC [4, 9] [mg/L] | MIC [2, 10] [mg/L] | EF/Tsoy(MIC) ([4]; Trypticase Soy Broth) | MIC [2, 11] [mg/L] | SMILES | IC50 (OV) [mg/L] | 14C(IC50) [1] | EF/MH(MIC) ([4]; Mueller Hinton Broth)
1 | 16.4 (≈ 40.1 µM) |  |  |  |  |  |  |  |  |  |  |  | CCCCCCCCC1(C)SC(=O)C=C1OCC(=O)NNC(=O)c1ccco1 (centres unmarked) | 21.3 (≈ 52.1 µM) |  | 
2 | 11.5 (≈ 32.3 µM) |  |  |  |  |  |  |  |  |  |  |  | CCCCCCCCC1(C)SC(=O)C=C1OCC(=O)NNC(C)=O (centres unmarked) | 16 (≈ 44.9 µM) |  | 
3 | 10.5 ± 2.6 (≈ 23.9 µM) |  |  |  |  |  |  |  |  |  |  |  | CCCCCCCCC1(C)SC(=O)C=C1OCC(=O)NNCc1ccc(Cl)cc1 (centres unmarked) | 16 (≈ 36.4 µM) |  | 
4 |  |  |  |  |  |  |  |  |  |  |  |  | CCCCCCCCC1(C)SC(=O)C=C1OCc1ccccc1 (centres unmarked) | 27.8 (≈ 83.6 µM) | Neg(stim) | 
5 | 9.8 (≈ 28.5 µM) |  | Neg | 69 (≈ 201 µM) | 111 (≈ 323 µM) |  | Neg | Neg |  | 156 (≈ 454 µM) | Neg |  | CCCCCC[C@@]1(C)SC(=O)C=C1OCC(=O)NCC(=O)OC (racemic) |  |  | Neg
6 | 6.6 (≈ 20 µM) | Neg |  | 78 (≈ 237 µM) | 225 (≈ 683 µM) | 173 (≈ 525 µM) | Neg | Neg | 121 (≈ 367 µM) |  |  | 235 (≈ 713 µM) | CCCCCC[C@@]1(C)SC(=O)C=C1OCC(=O)NCC(=O)O (racemic) |  |  | 
7 | 6.7 (≈ 17.1 µM) | Neg |  | 147 (≈ 375 µM) | 237 (≈ 604 µM) | 121 (≈ 308 µM) | Neg | Neg | 99 (≈ 252 µM) |  |  | 293 (≈ 747 µM) | CCCCCC[C@@]1(C)SC(=O)C=C1OCC(=O)NCCCBr (racemic) |  |  | 
8 | 10.7 (≈ 35.6 µM) |  | Neg | 64 (≈ 213 µM) | 41 (≈ 136 µM) | 65 (≈ 216 µM) | Neg | Neg | 73 (≈ 243 µM) | 296 (≈ 985 µM) |  |  | CCCCCCCC[C@@]1(C)SC(=O)C=C1OC(=O)OC (racemic) |  |  | 
9 | 22.6 (≈ 75.7 µM) | Neg | Neg | 88 (≈ 295 µM) | 62 (≈ 208 µM) | 147 (≈ 493 µM) | Neg | Neg | 102 (≈ 342 µM) |  |  |  | CCCCCCCC[C@@]1(C)SC(=O)C=C1OC(=O)CC (racemic) |  |  | 
10 | 12.1 ± 0.1 (≈ 42.5 µM) | Neg |  | 3.4 (≈ 12 µM) | 1.4 (≈ 4.92 µM) | 2 (≈ 7.03 µM) | Neg | Neg | 2.5 (≈ 8.79 µM) |  |  | 177 (≈ 622 µM) | CCCCCCCC[C@@]1(C)SC(=O)C(C(C)=O)=C1O (racemic) |  |  | 
11 | 23.1 ± 13.2 (≈ 70.5 µM) | Neg | Neg | 32 (≈ 97.7 µM) | 39 (≈ 119 µM) | 64 (≈ 195 µM) | Neg | Neg | 60 (≈ 183 µM) |  |  |  | CCCCCCCC[C@@]1(C)SC(=O)C=C1OC(=O)NC(C)C (racemic) |  |  | 

Row | SMILES | IC50 [1] [mg/L] | Ecoli/MH(MIC) ([2]; Mueller Hinton Broth) | Ecoli/Tsoy(MIC) ([2]; Trypticase Soy Broth) | MIC [3, 6] [mg/L] | MIC [3, 7] [mg/L] | MIC [4, 8] [mg/L] | PSAE/MH(MIC) [5] | PSAE/Tsoy(MIC) [5] | MIC [4, 9] [mg/L] | MIC [2, 10] [mg/L] | EF/Tsoy(MIC) ([4]; Trypticase Soy Broth) | MIC [2, 11] [mg/L] | IC50 (OV) [mg/L] | 14C(IC50) [1] | EF/MH(MIC) ([4]; Mueller Hinton Broth)
12 | C=CCOC1=CC(=O)S[C@]1(C)CCCCCC (racemic) |  | Neg | Neg | 73 (≈ 287 µM) | 54 (≈ 212 µM) | 158 (≈ 621 µM) | Neg | Neg |  |  |  |  |  | Neg | Neg
13 | C=CCOC1=CC(=O)S[C@]1(C)CCCCCCCC (racemic) |  | Neg | Neg | 127 (≈ 450 µM) | 85 (≈ 301 µM) | 238 (≈ 843 µM) | Neg | Neg | 238 (≈ 843 µM) |  |  |  |  | Neg | 
14 | C=CCOC(=O)OC1=CC(=O)S[C@]1(C)CCCCCCCC (racemic) | 14.2 (≈ 43.5 µM) |  |  | 57 (≈ 175 µM) | 28 (≈ 85.8 µM) | 75 (≈ 230 µM) | Neg | Neg | 79 (≈ 242 µM) | 82 (≈ 251 µM) |  | 87 (≈ 266 µM) |  |  | 
